Test results from the supplement of paper PMC11061612.

Key:
A673 (Ewing's Sarcoma) [1] = test: Bliss excess, mean over the matrix (fraction); higher = more synergy
Summary of the method: (§1)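 Bliss excess equals the observed combination effect minus the expected value EA + EB − EA·EB, where EA and EB are the effects of each agent alone. Combination Emax is the second-highest inhibition within the matrix. Inhibition was scaled from CellTiter-Glo 2.0 luminescence, with 0 set by vehicle wells and 1 by blank wells, after 72 hours of two-drug dosing of cells plated in 1536-well plates.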

[2] = test system: BE-13 (T-Lymphoblastic Leukemia); test: as above
Summary of the method: as §1

CAL-72 (Osteosarcoma) [3] = test: as above
Summary of the method: as §1

[4] = test system: ESS-1 (Other Solid Carcinomas); test: as above
Summary of the method: as §1

EW-11 (Ewing's Sarcoma) [5] = test: as above
Summary of the method: as §1

GAMG (Glioblastoma) [6] = test: as above
Summary of the method: as §1

[7] = test system: HH (T-Cell Non-Hodgkin's Lymphoma); test: as above
Summary of the method: as §1

[8] = test system: HuCCT1 (Biliary Tract Carcinoma); test: as above
Summary of the method: as §1

KS-1 (Glioblastoma) [9] = test: as above
Summary of the method: as §1

[10] = test system: KYAE-1 (Esophageal Adenocarcinoma); test: as above
Summary of the method: as §1

[11] = test system: LNZTA3WT4 (Low Grade Glioma); test: as above
Summary of the method: as §1

LOXIMVI (Melanoma) [12] = test: as above
Summary of the method: as §1

[13] = test system: LS-123 (Colorectal Carcinoma); test: as above
Summary of the method: as §1

MPP-89 (Mesothelioma) [14] = test: as above
Summary of the method: as §1

[15] = test system: NCI-H524 (Small Cell Lung Carcinoma); test: as above
Summary of the method: as §1

[16] = test system: OVCAR-5 (Ovarian Carcinoma); test: as above
Summary of the method: as §1

[17] = test system: SAS (Oral Cavity Carcinoma); test: as above
Summary of the method: as §1

[18] = test system: SNU-16 (Gastric Carcinoma); test: as above
Summary of the method: as §1

[19] = test system: SNU-449 (Hepatocellular Carcinoma); test: as above
Summary of the method: as §1

[20] = test system: SW1710 (Bladder Carcinoma); test: as above
Summary of the method: as §1

[21] = test system: TGBC1TKB (Biliary Tract Carcinoma); test: as above
Summary of the method: as §1

[22] = test system: WSU-NHL (B-Cell Non-Hodgkin's Lymphoma); test: as above
Summary of the method: as §1

[23] = test system: YAPC (Pancreatic Carcinoma); test: as above
Summary of the method: as §1

A673 (Ewing's Sarcoma) [24] = test: combination Emax (second highest fraction inhibited in the dose matrix, 72 h); higher = more inhibition; extreme values may be limits of the assay
Summary of the method: as §1

[25] = test system: BE-13 (T-Lymphoblastic Leukemia); test: as above
Summary of the method: as §1

CAL-72 (Osteosarcoma) [26] = test: as above
Summary of the method: as §1

[27] = test system: ESS-1 (Other Solid Carcinomas); test: as above
Summary of the method: as §1

EW-11 (Ewing's Sarcoma) [28] = test: as above
Summary of the method: as §1

GAMG (Glioblastoma) [29] = test: as above
Summary of the method: as §1

[30] = test system: HH (T-Cell Non-Hodgkin's Lymphoma); test: as above
Summary of the method: as §1

[31] = test system: HuCCT1 (Biliary Tract Carcinoma); test: as above
Summary of the method: as §1

KS-1 (Glioblastoma) [32] = test: as above
Summary of the method: as §1

[33] = test system: KYAE-1 (Esophageal Adenocarcinoma); test: as above
Summary of the method: as §1

[34] = test system: LNZTA3WT4 (Low Grade Glioma); test: as above
Summary of the method: as §1

LOXIMVI (Melanoma) [35] = test: as above
Summary of the method: as §1

[36] = test system: LS-123 (Colorectal Carcinoma); test: as above
Summary of the method: as §1

MPP-89 (Mesothelioma) [37] = test: as above
Summary of the method: as §1

[38] = test system: NCI-H524 (Small Cell Lung Carcinoma); test: as above
Summary of the method: as §1

[39] = test system: OVCAR-5 (Ovarian Carcinoma); test: as above
Summary of the method: as §1

[40] = test system: SAS (Oral Cavity Carcinoma); test: as above
Summary of the method: as §1

[41] = test system: SNU-16 (Gastric Carcinoma); test: as above
Summary of the method: as §1

[42] = test system: SNU-449 (Hepatocellular Carcinoma); test: as above
Summary of the method: as §1

[43] = test system: SW1710 (Bladder Carcinoma); test: as above
Summary of the method: as §1

[44] = test system: TGBC1TKB (Biliary Tract Carcinoma); test: as above
Summary of the method: as §1

[45] = test system: WSU-NHL (B-Cell Non-Hodgkin's Lymphoma); test: as above
Summary of the method: as §1

[46] = test system: YAPC (Pancreatic Carcinoma); test: as above
Summary of the method: as §1

For `O=C(c1cc(Cc2n[nH]c(=O)c3ccccc23)ccc1F)N1CCN(C(=O)C2CC2)CC1` [Olaparib] + Cc1c2c(nn1C)CSCc1cc(n(C)n1)CSc1cc(c3ccccc3c1)OCCCc1c(C(=O)O)n(C)c3c-2c(Cl)ccc13 [AZD5991] (first compound max 10 µM, 7x7, partner max 1 µM), the Bliss excess (A673 (Ewing's Sarcoma) [1]) was -0.0566, the Bliss excess [2] was 0.0142 and the Bliss excess (CAL-72 (Osteosarcoma) [3]) was -0.0242. For the same compound, the Bliss excess [4] was -0.0255, the Bliss excess (EW-11 (Ewing's Sarcoma) [5]) was -0.0175 and the Bliss excess (GAMG (Glioblastoma) [6]) was -0.0488. For the same compound, the Bliss excess [7] was -0.0339, the Bliss excess [8] was -0.0367 and the Bliss excess (KS-1 (Glioblastoma) [9]) was -0.0463. It also gave a Bliss excess [10] of 0.0031, a Bliss excess [11] of -0.0468 and a Bliss excess (LOXIMVI (Melanoma) [12]) of -0.0409. The Bliss excess [13] was -0.0658, the Bliss excess (MPP-89 (Mesothelioma) [14]) was -0.0586 and the Bliss excess [15] was 0.0147. The Bliss excess [16] was -0.0729, the Bliss excess [17] was -0.0344 and the Bliss excess [18] was 0.0603. The Bliss excess [19] was -0.045, the Bliss excess [20] was -0.0476 and the Bliss excess [21] was -0.0334. The Bliss excess [22] was 0.0217, the Bliss excess [23] was -0.0367 and the “combination Emax” value (A673 (Ewing's Sarcoma) [24]) was 0.446. For the same compound, the “combination Emax” value [25] was 0.498, the “combination Emax” value (CAL-72 (Osteosarcoma) [26]) was 0.191 and the “combination Emax” value [27] was 0.403. For the same compound, the “combination Emax” value (EW-11 (Ewing's Sarcoma) [28]) was 0.831, the “combination Emax” value (GAMG (Glioblastoma) [29]) was 0.0955 and the “combination Emax” value [30] was 0.809. For the same compound, the “combination Emax” value [31] was 0.15, the “combination Emax” value (KS-1 (Glioblastoma) [32]) was 0.0895 and the “combination Emax” value [33] was 0.231. For the same compound, the “combination Emax” value [34] was 0.123, the “combination Emax” value (LOXIMVI (Melanoma) [35]) was 0.311 and the “combination Emax” value [36] was 0.127. For the same compound, the “combination Emax” value (MPP-89 (Mesothelioma) [37]) was 0.0575, the “combination Emax” value [38] was 0.426 and the “combination Emax” value [39] was 0.122. For the same compound, the “combination Emax” value [40] was 0.122, the “combination Emax” value [41] was 0.994 and the “combination Emax” value [42] was 0.0781. For the same compound, the “combination Emax” value [43] was 0.119, the “combination Emax” value [44] was 0.157 and the “combination Emax” value [45] was 0.797. The “combination Emax” value [46] was 0.104.
